Experimental data published in ChEMBL document CHEMBL3885861, “Open TG-GATES”.

Species on record: Rattus norvegicus
Experiment: Open TG-GATES - Regimen: Single
Assay type: toxicity, organism-based, Sprague-Dawley
Parameters: regimen Single, gender Male, age 6 weeks
Conditions: in vivo, po, 1000 mg/kg, route gavage, dose level Middle; for APTT / Bas / Eos / Fbg / Hb / Ht / Lym / MCH / MCHC / MCV / Mono / Neu / PT / Plat / RBC / Ret / WBC: tissue Blood; for KIDNEY_L / KIDNEY_R / KIDNEY_TOTAL: tissue Kidney; for LIVER: tissue Liver; for A/G / ALP / ALT / AST / BUN / CRE / Ca / Cl / DBIL / GLC / IP / K / LDH / Na / PL / RALB / TBIL / TC / TG / TP / gamma-GTP: tissue Plasma

Compound: Clc1c(Cl)c(Cl)c(Cl)c(Cl)c1Cl [PERCHLOROBENZENE]
- TERMINAL_BW (3 h): 222.7 g
- APTT (3 h): 18.7 s
- Bas (3 h): 0%
- Eos (3 h): 1%
- Fbg (3 h): 227 mg/dL
- Hb (3 h): 13.3 g/dL
- Ht (3 h): 38%
- Lym (3 h): 78%
- MCH (3 h): 21.8 pg
- MCHC (3 h): 35%
- MCV (3 h): 62.1 fL
- Mono (3 h): 3.2%
- Neu (3 h): 16.4%
- PT (3 h): 11.8 s
- Plat (3 h): 122.1 x10_4/uL
- RBC (3 h): 612 x10_4/ul
- Ret (3 h): 7.6%
- WBC (3 h): 85.3 x10_2/uL
- KIDNEY_L (3 h): 1 g
- KIDNEY_R (3 h): 1 g
- KIDNEY_TOTAL (3 h): 1.9 g
- LIVER (3 h): 10.4 g
- A/G (3 h): 1.7
- ALP (3 h): 992 IU/L
- ALT (3 h): 35.2 IU/L
- AST (3 h): 79.2 IU/L
- BUN (3 h): 11.6 mg/dL
- CRE (3 h): 0.4 mg/dL
- Ca (3 h): 10.9 mg/dL
- Cl (3 h): 104 meq/L
- DBIL (3 h): 0.066 mg/dL
- GLC (3 h): 198.4 mg/dL
- IP (3 h): 8.8 mg/dL
- K (3 h): 3.8 meq/L
- LDH (3 h): 214 IU/L
- Na (3 h): 141.6 meq/L
- PL (3 h): 143.8 mg/dL
- RALB (3 h): 3.5 g/dL
- TBIL (3 h): 0.1 mg/dL
- TC (3 h): 68.6 mg/dL
- TG (3 h): 94.8 mg/dL
- TP (3 h): 5.5 g/dL
- gamma-GTP (3 h): 1 IU/L
- TERMINAL_BW (6 h): 217.7 g
- APTT (6 h): 18.9 s
- Bas (6 h): 0.2%
- Eos (6 h): 1%
- Fbg (6 h): 223.2 mg/dL
- Hb (6 h): 13.4 g/dL
- Ht (6 h): 38.5%
- Lym (6 h): 71.2%
- MCH (6 h): 21.6 pg
- MCHC (6 h): 34.9%
- MCV (6 h): 62.1 fL
- Mono (6 h): 3.2%
- Neu (6 h): 23.4%
- PT (6 h): 12.2 s
- Plat (6 h): 132.8 x10_4/uL
- RBC (6 h): 620.2 x10_4/ul
- Ret (6 h): 7.3%
- WBC (6 h): 100.6 x10_2/uL
- KIDNEY_L (6 h): 1 g
- KIDNEY_R (6 h): 0.9 g
- KIDNEY_TOTAL (6 h): 1.9 g
- LIVER (6 h): 9 g
- A/G (6 h): 1.7
- ALP (6 h): 1078.8 IU/L
- ALT (6 h): 33.4 IU/L
- AST (6 h): 79 IU/L
- BUN (6 h): 10 mg/dL
- CRE (6 h): 0.4 mg/dL
- Ca (6 h): 10.5 mg/dL
- Cl (6 h): 103.4 meq/L
- DBIL (6 h): 0.064 mg/dL
- GLC (6 h): 186 mg/dL
- IP (6 h): 9 mg/dL
- K (6 h): 4.1 meq/L
- LDH (6 h): 224 IU/L
- Na (6 h): 141.4 meq/L
- PL (6 h): 127.4 mg/dL
- RALB (6 h): 3.4 g/dL
- TBIL (6 h): 0.1 mg/dL
- TC (6 h): 69.4 mg/dL
- TG (6 h): 55.2 mg/dL
- TP (6 h): 5.4 g/dL
- gamma-GTP (6 h): 1 IU/L
- TERMINAL_BW (9 h): 216.4 g
- APTT (9 h): 19.1 s
- Bas (9 h): 0.2%
- Eos (9 h): 1%
- Fbg (9 h): 220.6 mg/dL
- Hb (9 h): 13.5 g/dL
- Ht (9 h): 38.5%
- Lym (9 h): 72%
- MCH (9 h): 21.2 pg
- MCHC (9 h): 34.9%
- MCV (9 h): 60.6 fL
- Mono (9 h): 2.8%
- Neu (9 h): 23%
- PT (9 h): 12.3 s
- Plat (9 h): 124.7 x10_4/uL
- RBC (9 h): 636 x10_4/ul
- Ret (9 h): 6.9%
- WBC (9 h): 72.6 x10_2/uL
- KIDNEY_L (9 h): 1 g
- KIDNEY_R (9 h): 1 g
- KIDNEY_TOTAL (9 h): 1.9 g
- LIVER (9 h): 8.8 g
- A/G (9 h): 1.6
- ALP (9 h): 926.6 IU/L
- ALT (9 h): 27.4 IU/L
- AST (9 h): 63.4 IU/L
- BUN (9 h): 11.2 mg/dL
- CRE (9 h): 0.3 mg/dL
- Ca (9 h): 10.5 mg/dL
- Cl (9 h): 103.4 meq/L
- DBIL (9 h): 0.058 mg/dL
- GLC (9 h): 201.2 mg/dL
- IP (9 h): 10.4 mg/dL
- K (9 h): 3.8 meq/L
- LDH (9 h): 191.4 IU/L
- Na (9 h): 142 meq/L
- PL (9 h): 121.2 mg/dL
- RALB (9 h): 3.3 g/dL
- TBIL (9 h): 0.1 mg/dL
- TC (9 h): 61 mg/dL
- TG (9 h): 39 mg/dL
- TP (9 h): 5.4 g/dL
- gamma-GTP (9 h): 1.2 IU/L
- TERMINAL_BW (24 h): 230.6 g
- APTT (24 h): 18.3 s
- Bas (24 h): 0.2%
- Eos (24 h): 1%
- Fbg (24 h): 240.8 mg/dL
- Hb (24 h): 13.6 g/dL
- Ht (24 h): 39.3%
- Lym (24 h): 74.2%
- MCH (24 h): 21.3 pg
- MCHC (24 h): 34.5%
- MCV (24 h): 61.6 fL
- Mono (24 h): 3%
- Neu (24 h): 20.6%
- PT (24 h): 11.7 s
- Plat (24 h): 128 x10_4/uL
- RBC (24 h): 637.6 x10_4/ul
- Ret (24 h): 6.5%
- WBC (24 h): 80.8 x10_2/uL
- KIDNEY_L (24 h): 1 g
- KIDNEY_R (24 h): 1 g
- KIDNEY_TOTAL (24 h): 2.1 g
- LIVER (24 h): 11.1 g
- A/G (24 h): 1.5
- ALP (24 h): 901 IU/L
- ALT (24 h): 35.4 IU/L
- AST (24 h): 66.2 IU/L
- BUN (24 h): 14.2 mg/dL
- CRE (24 h): 0.4 mg/dL
- Ca (24 h): 11 mg/dL
- Cl (24 h): 103.4 meq/L
- DBIL (24 h): 0.056 mg/dL
- GLC (24 h): 204.8 mg/dL
- IP (24 h): 6.9 mg/dL
- K (24 h): 3.8 meq/L
- LDH (24 h): 230.6 IU/L
- Na (24 h): 141.4 meq/L
- PL (24 h): 152.8 mg/dL
- RALB (24 h): 3.4 g/dL
- TBIL (24 h): 0.096 mg/dL
- TC (24 h): 80.4 mg/dL
- TG (24 h): 133.6 mg/dL
- TP (24 h): 5.6 g/dL
- gamma-GTP (24 h): 1 IU/L
